Experimental data: patent US6737383B1, “Herbicidal oxadiazolidines” (priority 1999, dated 2004)

Experiments:
wild oat = assay: Test B pre/postemergence wild oat; format: in vivo, Avena fatua
Method in brief: (§1)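 Test chemicals in a non-phytotoxic solvent mixture with surfactant were sprayed preemergence onto planted seeds and postemergence onto plants 2 to 18 cm tall (1- to 4-leaf stage). After twelve to sixteen days in a greenhouse, injury was visually rated against untreated controls from 0 (no effect) to 10 (complete control).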

rice = assay: Test B flood test rice; format: in vivo, Oryza sativa
Method in brief: (§2)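 Read-out is a visual response score from 0 (no effect) to 10 (complete control), assigned by comparison with untreated controls. Treatment was applied at the 2-leaf stage, and plants stayed in the greenhouse for twelve to sixteen days before scoring.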

morningglory = assay: Test B pre/postemergence morningglory; format: in vivo, Ipomoea hederacea
Method in brief: as §1

surinam grass = assay: Test B pre/postemergence surinam grass; format: in vivo, Brachiaria decumbens
Method in brief: as §1

crabgrass = assay: Test B pre/postemergence crabgrass; format: in vivo, Digitaria sanguinalis
Method in brief: as §1

duck salad = assay: Test B flood test duck salad; format: in vivo, Heteranthera limosa
Method in brief: as §2

bamyardgrass = assay: Test B flood test barnyardgrass; format: in vivo, Echinochloa crus-galli
Method in brief: as §2

cocklebur = assay: Test B pre/postemergence cocklebur; format: in vivo, Xanthium strumarium
Method in brief: as §1

purple nutsedge = assay: Test B pre/postemergence purple nutsedge; format: in vivo, Cyperus rotundus
Method in brief: as §1

giant foxtail = assay: Test B pre/postemergence giant foxtail; format: in vivo, Setaria faberii
Method in brief: as §1

sugar beet = assay: Test B pre/postemergence sugar beet; format: in vivo, Beta vulgaris
Method in brief: as §1

corn = assay: Test B pre/postemergence corn; format: in vivo, Zea mays
Method in brief: as §1

rape = assay: Test B pre/postemergence rape; format: in vivo, Brassica napus
Method in brief: as §1

smallflower flatsedge = assay: Test B flood test smallflower flatsedge; format: in vivo, Cyperus difformis
Method in brief: as §2

soybean = assay: Test B pre/postemergence soybean; format: in vivo, Glycine max
Method in brief: as §1

pigweed = assay: Test B pre/postemergence pigweed; format: in vivo, Amaranthus retroflexus
Method in brief: as §1

[1] = Postemergence, Rate 125 g/ha, scale of 0 to 10 where 0 is no effect and 10 is complete control
[2] = Postemergence, Rate 1000 g/ha, scale 0 to 10 (0 no effect, 10 complete control)
[3] = Preemergence, Rate 62 g/ha, scale 0 to 10 (0 no effect, 10 complete control)
[4] = Preemergence, Rate 125 g/ha, 0 is no effect, 10 is complete control
[5] = Preemergence, Rate 250 g/ha, scale 0 to 10, 0 is no effect, 10 is complete control
[6] = Preemergence, Rate 500 g/ha, scale 0 to 10 (0 no effect, 10 complete control)
[7] = Rate 62 g/ha, Postemergence, scale of 0 to 10 where 0 is no effect and 10 is complete control
[8] = Rate 250 g/ha, Postemergence, scale 0 to 10, 0 is no effect, 10 is complete control
[9] = Rate 500 g/ha, Postemergence, scale 0 to 10
[10] = Rate 1000 g/ha, Preemergence, scale 0 to 10 (0 no effect, 10 complete control)
[11] = Postemergence (flood test species), Rate 125 g/ha, scale of 0 to 10 where 0 is no effect and 10 is complete control
[12] = Rate 62 g/ha, Postemergence section, flood test species, scale of 0 to 10 where 0 is no effect and 10 is complete control
[13] = Rate 250 g/ha, Postemergence (flood test), scale 0 to 10, 0 is no effect, 10 is complete control
[14] = Rate 500 g/ha, listed under Postemergence (flood test species), scale 0 to 10
[15] = Postemergence, Rate 62 g/ha, scale 0 to 10, 0 is no effect, 10 is complete control

## C=CCn1c(=O)on(C(=O)N(c2ccc(F)cc2F)C2CC2)c1=O [Compound 127]
Wild oat; [1]
  Wild oats plant response rating: 0
Wild oat; [2]
  Wild oats plant response rating: 0
Wild oat; [3]
  Wild oats plant response rating: 0
Wild oat; [4]
  Wild oats plant response rating (0 to 10 scale): 0
Wild oat; [5]
  Wild oats plant response rating: 0
Wild oat; [6]
  Wild oats plant response rating: 0
Wild oat; [7]
  Wild oats plant response rating: 0
Wild oat; [8]
  Plant response rating, Wild oats: 0
Wild oat; [9]
  Wild oats plant response rating: 0
Wild oat; [10]
  Plant response rating, Wild oats: 8
rice; [11]
  Rice plant response rating: 0
rice; [12]
  Rice plant response rating: 0
rice; [13]
  Plant response rating, Rice: 0
rice; [14]
  Rice plant response rating: 0
morningglory; [1]
  Morningglory plant response rating: 0
morningglory; [2]
  Morningglory plant response rating: 0
morningglory; [3]
  Morningglory plant response rating: 0
morningglory; [4]
  Morningglory plant response rating (0 to 10 scale): 0
morningglory; [5]
  Morningglory plant response rating: 0
morningglory; [6]
  Morningglory plant response rating: 0
morningglory; [7]
  Morningglory plant response rating: 0
morningglory; [8]
  Plant response rating, Morningglory: 0
morningglory; [9]
  Morningglory plant response rating: 0
morningglory; [10]
  Plant response rating, Morningglory: 0
Surinam grass; [15]
  B. signalgrass plant response rating: 0
Surinam grass; [1]
  B. signalgrass plant response rating: 0
Surinam grass; [2]
  B. signalgrass plant response rating: 0
Surinam grass; [3]
  B. signalgrass plant response rating: 0
Surinam grass; [4]
  B. signalgrass plant response rating (0 to 10 scale): 0
Surinam grass; [5]
  B. signalgrass plant response rating: 0
Surinam grass; [6]
  B. signalgrass plant response rating: 0
Surinam grass; [8]
  Plant response rating, B. signalgrass: 0
Surinam grass; Rate 500 g/ha, Postemergence, scale of 0 to 10 where 0 is no effect and 10 is complete control
  B. signalgrass plant response rating: 0
Surinam grass; [10]
  Plant response rating, B. signalgrass: 0
crabgrass; [1]
  Crabgrass plant response rating: 0
crabgrass; [2]
  Crabgrass plant response rating: 0
crabgrass; [3]
  Crabgrass plant response rating: 0
crabgrass; [4]
  Crabgrass plant response rating (0 to 10 scale): 0
crabgrass; [5]
  Crabgrass plant response rating: 0
crabgrass; [6]
  Crabgrass plant response rating: 0
crabgrass; [7]
  Crabgrass plant response rating: 0
crabgrass; [8]
  Plant response rating, Crabgrass: 0
crabgrass; [9]
  Crabgrass plant response rating: 0
crabgrass; [10]
  Plant response rating, Crabgrass: 7
Duck salad; [11]
  Ducksalad plant response rating: 0
Duck salad; [12]
  Ducksalad plant response rating: 0
Duck salad; [13]
  Plant response rating, Ducksalad: 0
Duck salad; [14]
  Ducksalad plant response rating: 0
bamyardgrass; [11]
  Barnyardgrass plant response rating: 0
bamyardgrass; [15]
  Barnyardgrass plant response rating: 0
bamyardgrass; [13]
  Plant response rating, Barnyardgrass: 0
bamyardgrass; Rate 500 g/ha, listed under Postemergence (flood test species), scale 0 to 10, 0 no effect, 10 complete control
  Barnyardgrass plant response rating: 0
cocklebur; [1]
  Cocklebur plant response rating: 0
cocklebur; [2]
  Cocklebur plant response rating: 0
cocklebur; [3]
  Cocklebur plant response rating: 0
cocklebur; [4]
  Cocklebur plant response rating (0 to 10 scale): 0
cocklebur; [5]
  Cocklebur plant response rating: 0
cocklebur; [6]
  Cocklebur plant response rating: 0
cocklebur; [7]
  Cocklebur plant response rating: 0
cocklebur; [8]
  Plant response rating, Cocklebur: 0
cocklebur; [9]
  Cocklebur plant response rating: 0
Purple nutsedge; [1]
  Nutsedge plant response rating: 0
Purple nutsedge; [2]
  Nutsedge plant response rating: 0
Purple nutsedge; [3]
  Nutsedge plant response rating: 0
Purple nutsedge; [4]
  Nutsedge plant response rating (0 to 10 scale): 0
Purple nutsedge; [5]
  Nutsedge plant response rating: 0
Purple nutsedge; [6]
  Nutsedge plant response rating: 0
Purple nutsedge; [7]
  Nutsedge plant response rating: 0
Purple nutsedge; [8]
  Plant response rating, Nutsedge: 0
Purple nutsedge; [9]
  Nutsedge plant response rating: 0
Giant foxtail; [1]
  Giant foxtail plant response rating: 0
Giant foxtail; [2]
  Giant foxtail plant response rating: 0
Giant foxtail; [3]
  Giant foxtail plant response rating: 0
Giant foxtail; [4]
  Giant foxtail plant response rating (0 to 10 scale): 0
Giant foxtail; [5]
  Giant foxtail plant response rating: 2
Giant foxtail; [6]
  Giant foxtail plant response rating: 4
Giant foxtail; [7]
  Giant foxtail plant response rating: 0
Giant foxtail; [8]
  Plant response rating, Giant foxtail: 0
Giant foxtail; [9]
  Giant foxtail plant response rating: 0
Giant foxtail; [10]
  Plant response rating, Giant foxtail: 9
Sugar beet; [1]
  Sugarbeets plant response rating: 0
Sugar beet; [2]
  Sugarbeets plant response rating: 0
Sugar beet; [3]
  Sugarbeets plant response rating: 0
Sugar beet; [4]
  Sugarbeets plant response rating (0 to 10 scale): 0
Sugar beet; [5]
  Sugarbeets plant response rating: 0
Sugar beet; [6]
  Sugarbeets plant response rating: 0
Sugar beet; [7]
  Sugarbeets plant response rating: 0
Sugar beet; [8]
  Plant response rating, Sugarbeets: 0
Sugar beet; [9]
  Sugarbeets plant response rating: 0
Sugar beet; [10]
  Plant response rating, Sugarbeets: 0
corn; [1]
  Corn plant response rating: 0
corn; [2]
  Corn plant response rating: 0
corn; [3]
  Corn plant response rating: 0
corn; [4]
  Corn plant response rating (0 to 10 scale): 0
corn; [5]
  Corn plant response rating: 0
corn; [6]
  Corn plant response rating: 0
corn; [7]
  Corn plant response rating: 0
corn; [8]
  Plant response rating, Corn: 0
corn; [9]
  Corn plant response rating: 0
corn; [10]
  Plant response rating, Corn: 0
rape; [1]
  Rape plant response rating: 0
rape; [2]
  Rape plant response rating: 0
rape; [3]
  Rape plant response rating: 0
rape; [4]
  Rape plant response rating (0 to 10 scale): 0
rape; [5]
  Rape plant response rating: 0
rape; [6]
  Rape plant response rating: 0
rape; [7]
  Rape plant response rating: 0
rape; [8]
  Plant response rating, Rape: 0
rape; [9]
  Rape plant response rating: 0
rape; [10]
  Plant response rating, Rape: 0
Smallflower flatsedge; [11]
  S. Flatsedge plant response rating: 0
Smallflower flatsedge; [12]
  S. Flatsedge plant response rating: 0
Smallflower flatsedge; [13]
  Plant response rating, S. Flatsedge: 0
Smallflower flatsedge; [14]
  S. Flatsedge plant response rating: 0
soybean; [1]
  Soybean plant response rating: 0
soybean; [2]
  Soybean plant response rating: 0
soybean; [3]
  Soybean plant response rating: 0
soybean; [4]
  Soybean plant response rating (0 to 10 scale): 0
soybean; [5]
  Soybean plant response rating: 0
soybean; [6]
  Soybean plant response rating: 0
soybean; [7]
  Soybean plant response rating: 0
soybean; [8]
  Plant response rating, Soybean: 0
soybean; [9]
  Soybean plant response rating: 0
soybean; [10]
  Plant response rating, Soybean: 0
pigweed; [1]
  Redroot pigweed plant response rating: 0
pigweed; [2]
  Redroot pigweed plant response rating: 0
pigweed; [3]
  Redroot pigweed plant response rating: 0
pigweed; [4]
  Redroot pigweed plant response rating (0 to 10 scale): 0
pigweed; [5]
  Redroot pigweed plant response rating: 3
pigweed; [6]
  Redroot pigweed plant response rating: 7
pigweed; [7]
  Redroot pigweed plant response rating: 0
pigweed; [8]
  Plant response rating, Redroot pigweed: 0
pigweed; [9]
  Redroot pigweed plant response rating: 0
pigweed; [10]
  Plant response rating, Redroot pigweed: 10
